Source: US11214564B2, “Compounds with thymine skeleton for use in medicine” (TECHNISCHE UNIVERSITÄT DRESDEN, priority 2019, dated 2022)
Values belong to the molecule of their own block, whether it stands above or below them.

Legend:
[1] = test system: 2950-K9 mouse colon carcinoma cells; assay: Chemoresistance assay, 2950-K9 cells with 5-Fluorouracil; assay type: cell-based; conditions: rising 5-FU 12-20 nM; BVDU 30 μM, compounds 1 μM or lower; FIG. 1b
Source text: (§1) In a chemoresistance assay, a HSP27 dependent resistance to a cytostatic drug is induced in cultured cells by slowly increasing the dose of the cytostatic over several cell passages. This approach is valid for multiple cell types and cytostatic drugs and allowed us to test compounds according to the invention for their ability to inhibit HSP27 and reestablish susceptibility of the resistant cells to the cancer drug.
(§2) The addition of HSP27 inhibitors prevents development of chemoresistance and reestablishes the killing effect of Bortezomib. Cell numbers are determined at the end of the final passage to compare their growth rates.
(§3) As a reference compound, BVDU was tested at a concentration of 30 μM as previously described (Heinrich et al. (2016)). The compounds according to the invention were tested at a concentration of 1 μM or lower (see below). Test compounds were added at the start of the experiment and again after each passage and their concentrations remained unchanged throughout. […] The appropriate non-toxic dose of the test compound was determined in a dose-finding experiment beforehand.
FIG. 1b: Results of chemoresistance assay showing the resensitization of chemoresistant 2950-K9 mouse colon carcinoma cells to the drug 5-Fluorouracil (5-FU) after treatment with test compounds. 2950-K9 cells (100,000) were seeded and cultured in the presence of rising concentrations of 5-FU (12-20 nM) and HSP27 inhibitor, and passaged every 4-7 days. Cell counts were taken after the last passage at the highest concentration of 5-FU and relative cell number determined. Test compounds were BVDU, and Compound 5, Compound 12 and Compound 4, according to the invention.

[2] = test system: RPMI 8226 multiple myeloma cells; assay: Chemoresistance assay, RPMI 8226 cells with Bortezomib; assay type: cell-based, human; conditions: for resensitization of chemoresistant RPMI 8226 multiple myeloma cells to Bortezomib (relative cell number): rising Bortezomib 0.5-1 nM or 0.75-1.3 nM, BVDU 30 μM, compounds 1 μM or lower, FIG. 1a
Source text: as §1
RPM-8226 cells, a human multiple myeloma cell line, were obtained from DSMZ (Leibniz Institute DSMZ-German Collection of Microorganisms and Cell Cultures). Cells were grown in RPMI 1640 medium (FG 1235; Biochrom AG, Berlin, Germany) supplemented with 10% (v/v) heat-inactivated fetal bovine serum in a humidified atmosphere containing 5% CO2 at 37° C. Logarithmically growing cells were seeded at a density of 100,000 cells/ml and incubated with Bortezomib (Velcade) in combination with or without test compounds. Cells were periodically counted using C-Chip Neubauer-improved counting chambers (Peqlab) and serially passaged. Cells were maintained below 1,000,000 cells/ml and typically passaged when the cell count reached 800,000 cells/ml. The starting dose of Bortezomib was typically 0.1 ng/ml and the concentration of Bortezomib was increased with each passage, e.g.: 1st passage, 0.1 ng/ml Bortezomib, 2nd passage 0.2 ng/ml Bortezomib, 3rd passage 0.3 ng/ml Bortezomib, etc.
Over 3-4 passages with increasing concentration of Bortezomib, cells begin to show resistance and finally grow at the same rate as untreated cells.
as §2, §3
FIG. 1a: Results of chemoresistance assay showing the resensitization of chemoresistant RPMI 8226 multiple myeloma cells to Bortezomib after treatment with test compounds. RPMI-8226 cells (100,000) were seeded and cultured in the presence of rising concentrations of Bortezomib (0.5-1 nM or 0.75-1.3 nM) and HSP27 inhibitor, and passaged every 4-7 days. Cell counts were taken after the last passage at the highest concentration of Bortezomib and relative cell number determined. Test compounds were BVDU, and Compound 12 and Compound 4, according to the invention.

[3] = target: HSP27 (Homo sapiens, UniProt P04792); assay: Aggregation assay: HSP27 chaperone activity on heat-induced aggregation of citrate synthase; assay type: biochemical; conditions: compound 10 μM; 1.44 μM CS, 481 nM HSP27, 43° C., 500 nm
Description: To test how small molecules affect the chaperone activity of HSP27, misfolding and aggregation of citrate synthase (CS), a well-known in vitro client protein of HSP27, was measured. Citrate synthase misfolds and aggregates when exposed to heat shock at 43° C. This heat denaturation is prevented or delayed in the presence of HSP27 (CS+HSP27) (Jakob et al. (1993)). […] The samples were incubated at 43° C. and the aggregation behavior of CS was monitored in a spectrometer (PerkinElmer LS55) at a wavelength of 500 nm. Substances inhibiting HSP27's chaperone activity lead to continued denaturation of the client protein and its aggregation in solution. This inhibition correlates with the strength of the interaction between HSP27 and the test substance, which is related to its binding efficiency.
In the reference experiment BVDU (CS+HSP27+BVDU) was tested at a concentration of 750 μM as previously described (Heinrich et al. (2016)).
The compounds according to the invention were tested at a concentration of 10 μM.

HSP27, sequence (P04792 whole entry): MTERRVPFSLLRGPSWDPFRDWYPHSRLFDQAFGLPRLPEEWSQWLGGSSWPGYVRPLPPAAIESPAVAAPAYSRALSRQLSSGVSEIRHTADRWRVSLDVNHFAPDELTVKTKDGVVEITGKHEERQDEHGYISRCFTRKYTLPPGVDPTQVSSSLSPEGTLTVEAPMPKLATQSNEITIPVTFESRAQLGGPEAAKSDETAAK

Compound: O=c1[nH]c(=O)n([C@H]2C[C@H](O)[C@@H](CO)O2)cc1/C=C/Br [BVDU, (E)-5-(2-bromovinyl)-2′-deoxyuridine, reference compound]
- resensitization of chemoresistant 2950-K9 mouse colon carcinoma cells to 5-Fluorouracil (relative cell number) [1]: resensitization
- influence on cell growth of compound alone (control without cytostatic) ([2]; cells treated with only BVDU (30 μM) or test compound (1 μM or lower)): did not influence cell growth
- resensitization of chemoresistant RPMI 8226 multiple myeloma cells to Bortezomib (relative cell number) [2]: resensitization

Compound: O=C(Cc1cccc(-c2ccc(Cl)c(Cl)c2)c1)Nc1ccc(-n2ccc(=O)[nH]c2=O)cc1 [Compound 4, 2-(3′,4′-dichloro-[1,1′-biphenyl]-3-yl)-N-(4-(2,4-dioxo-3,4-dihydro-pyrimidin-1(2H)-yl)phenyl) acetamide]
- aggregation value related to the value from reference experiment (CS + HSP27 + BVDU), which was set at 1.0 [3]: 1.39
- resensitization of chemoresistant 2950-K9 mouse colon carcinoma cells to 5-Fluorouracil (relative cell number) [1]: resensitization
- resensitization of chemoresistant RPMI 8226 multiple myeloma cells to Bortezomib (relative cell number) [2]: resensitization

Compound: O=C(Cc1cccc(-c2ccc(Cl)cc2Cl)c1)Nc1ccc(-n2ccc(=O)[nH]c2=O)cc1 [Compound 5, 2-(2′,4′-dichloro-[1,1′-biphenyl]-3-yl)-N-(4-(2,4-dioxo-3,4-dihydro-pyrimidin-1(2H)-yl)phenyl) acetamide]
- aggregation value related to the value from reference experiment (CS + HSP27 + BVDU), which was set at 1.0 [3]: 1.39
- resensitization of chemoresistant 2950-K9 mouse colon carcinoma cells to 5-Fluorouracil (relative cell number) [1]: resensitization

Compound: O=C(Cc1cccc(-c2ccc(Cl)c(Cl)c2)c1)Nc1ccc(-n2cc(F)c(=O)[nH]c2=O)cc1 [Compound 12, 2-(3′,4′-dichloro-[1,1′-biphenyl]-3-yl)-N-(4-(5-fluoro-2,4-dioxo-3,4-dihydro-pyrimidin-1(2H)-yl)phenyl) acetamide]
- aggregation value related to the value from reference experiment (CS + HSP27 + BVDU), which was set at 1.0 [3]: 1.57
- resensitization of chemoresistant 2950-K9 mouse colon carcinoma cells to 5-Fluorouracil (relative cell number) [1]: resensitization
- resensitization of chemoresistant RPMI 8226 multiple myeloma cells to Bortezomib (relative cell number) [2]: resensitization

Compound: O=C(Nc1ccc(-n2ccc(=O)[nH]c2=O)cc1)c1cccc(-c2cccc(Cl)c2)c1 [Compound 43, 3′-chloro-N-(4-(2,4-dioxo-3,4-dihydro-pyrimidin-1(2H)-yl)phenyl)-[1,1′-biphenyl]-3-carboxamide]
- aggregation value related to the value from reference experiment (CS + HSP27 + BVDU), which was set at 1.0 [3]: 0.79

Compound: COc1ccc(-c2cccc(C(=O)Nc3ccc(-n4ccc(=O)[nH]c4=O)cc3)c2)cc1Cl [Compound 44, 3′-chloro-N-(4-(2,4-dioxo-3,4-dihydro-pyrimidin-1(2H)-yl)phenyl)-4′-methoxy-[1,1′-biphenyl]-3-carboxamide]
- aggregation value related to the value from reference experiment (CS + HSP27 + BVDU), which was set at 1.0 [3]: 0.83

Compound: COc1ccc(-c2cccc(C(=O)Nc3ccc(-n4cc(C)c(=O)[nH]c4=O)cc3)c2)cc1Cl [Compound 45, 3′-chloro-4′-methoxy-N-(4-(5-methyl-2,4-dioxo-3,4-dihydro-pyrimidin-1(2H)-yl)phenyl)-[1,1′-biphenyl]-3-carboxamide]
- aggregation value related to the value from reference experiment (CS + HSP27 + BVDU), which was set at 1.0 [3]: 0.88

Compound: COc1cccc(-c2cccc(C(=O)Nc3ccc(-n4cc(C)c(=O)[nH]c4=O)cc3)c2)c1 [Compound 46, 3′-methoxy-N-(4-(5-methyl-2,4-dioxo-3,4-dihydro-pyrimidin-1(2H)-yl)phenyl)-[1,1′-biphenyl]-3-carboxamide]
- aggregation value related to the value from reference experiment (CS + HSP27 + BVDU), which was set at 1.0 [3]: 0.75

Compound: Cc1cn(-c2ccc(NC(=O)c3cccc(-c4cccc(OC(F)(F)F)c4)c3)cc2)c(=O)[nH]c1=O [Compound 47, N-(4-(5-methyl-2,4-dioxo-3,4-dihydro-pyrimidin-1(2H)-yl)phenyl)-3′-(trifluoro-methoxy)-[1,1′-biphenyl]-3-carboxamide]
- aggregation value related to the value from reference experiment (CS + HSP27 + BVDU), which was set at 1.0 [3]: 1.46

Compound: O=C(Nc1ccc(-n2cc(Cl)c(=O)[nH]c2=O)cc1)c1cccc(-c2cccc(OC(F)(F)F)c2)c1 [Compound 48, N-(4-(5-chloro-2,4-dioxo-3,4-dihydro-pyrimidin-1(2H)-yl)phenyl)-3′-(trifluoro-methoxy)-[1,1′-biphenyl]-3-carboxamide]
- aggregation value related to the value from reference experiment (CS + HSP27 + BVDU), which was set at 1.0 [3]: 0.7

Compound: Cc1ccc(-c2cccc(C(=O)Nc3ccc(-n4cc(C)c(=O)[nH]c4=O)cc3)c2)cc1Cl [Compound 49, 3′-chloro-4′-methyl-N-(4-(5-methyl-2,4-dioxo-3,4-dihydro-pyrimidin-1(2H)-yl)phenyl)-[1,1′-biphenyl]-3-carboxamide]
- aggregation value related to the value from reference experiment (CS + HSP27 + BVDU), which was set at 1.0 [3]: 1.16

Compound: O=C(Cc1cn(-c2ccc(-n3ccc(=O)[nH]c3=O)cc2)nn1)Nc1ccc(Cl)c(Cl)c1 [Compound 52, N-(3,4-dichlorophenyl)-2-(1-(4-(2,4-dioxo-3,4-dihydropyrimidin-1(2H)-yl)phenyl)-1H-1,2,3-triazol-4-yl)acetamide]
- aggregation value related to the value from reference experiment (CS + HSP27 + BVDU), which was set at 1.0 [3]: 1

Second part, the molecule after the results:

- aggregation value related to the value from reference experiment (CS + HSP27 + BVDU), which was set at 1.0 [3]: 0.73
Compound: Cc1ccc(-c2cccc(C(=O)Nc3ccc(-n4ccc(=O)[nH]c4=O)cc3)c2)cc1Cl [Compound 50, 3′-chloro-N-(4-(2,4-dioxo-3,4-dihydro-pyrimidin-1(2H)-yl)phenyl)-4′-methyl-[1,1′-biphenyl]-3-carboxamide]

- aggregation value related to the value from reference experiment (CS + HSP27 + BVDU), which was set at 1.0 [3]: 0.73
Compound: O=C(Cc1cccc(-c2ccc(Cl)c(Cl)c2)c1)Nc1ccc(-n2cc(Cl)c(=O)[nH]c2=O)cc1 [Compound 51, N-(4-(5-chloro-2,4-dioxo-3,4-dihydro-pyrimidin-1(2H)-yl)phenyl)-2-(3′,4′-dichloro-[1,1′-biphenyl]-3-yl)acetamide]

- aggregation value related to the value from reference experiment (CS + HSP27 + BVDU), which was set at 1.0 [3]: 1.67
Compound: O=C(Cc1cn(-c2ccc(-n3ccc(=O)[nH]c3=O)cc2)nn1)NCc1ccc(Cl)c(Cl)c1 [Compound 53]

- aggregation value related to the value from reference experiment (CS + HSP27 + BVDU), which was set at 1.0 [3]: 1.42
Compound: O=C(NCc1cn(-c2ccc(-n3ccc(=O)[nH]c3=O)cc2)nn1)c1ccc(Cl)c(Cl)c1 [Compound 54, 3,4-Dichloro-N-((1-(4-(2,4-dioxo-3,4-dihydropyrimidin-1(2H)-yl)phenyl)-1H-1,2,3-triazol-4-yl)methyl)benzamide]

- aggregation value related to the value from reference experiment (CS + HSP27 + BVDU), which was set at 1.0 [3]: 1.05
Compound: O=C(Cc1ccc(Cl)c(Cl)c1)NCc1cn(-c2ccc(-n3ccc(=O)[nH]c3=O)cc2)nn1 [Compound 55, 2-(3,4-Dichlorophenyl)-N-((1-(4-(2,4-dioxo-3,4-dihydropyrimidin-1(2H)-yl)phenyl)-1H-1,2,3-triazol-4-yl)methyl)acetamide]

- aggregation value related to the value from reference experiment (CS + HSP27 + BVDU), which was set at 1.0 [3]: 1.39
Compound: O=c1ccn(-c2ccc(-n3cc(-c4ccc(Cl)c(Cl)c4)nn3)cc2)c(=O)[nH]1 [Compound 56, 1-(4-(4-(3,4-Dichlorophenyl)-1H-1,2,3-triazol-1-yl)phenyl)pyrimidine-2,4(1H,3H)-dione]
